PMC7866232, “New Substituted 5-Benzylideno-2-Adamantylthiazol[3,2-b][1,2,4]Triazol-6(5H)ones as Possible Anti-Inflammatory Agents” (Molecules, 2021)
Like-named read-outs stand apart in the source and are kept apart here.

Key:
human recombinant COX-2 = target: T1, human recombinant COX-2 (Homo sapiens, UniProt P35354); experiment: COX inhibitor screening assay in vitro, COX-2; assay type: biochemical; conditions: for inhibition at 200 µM: read-out: COX-2 (%) inhibition
T1 construct: purchased Cayman Chemical Co., Ann Arbor, MI, USA
T1 sequence (P35354 18-604): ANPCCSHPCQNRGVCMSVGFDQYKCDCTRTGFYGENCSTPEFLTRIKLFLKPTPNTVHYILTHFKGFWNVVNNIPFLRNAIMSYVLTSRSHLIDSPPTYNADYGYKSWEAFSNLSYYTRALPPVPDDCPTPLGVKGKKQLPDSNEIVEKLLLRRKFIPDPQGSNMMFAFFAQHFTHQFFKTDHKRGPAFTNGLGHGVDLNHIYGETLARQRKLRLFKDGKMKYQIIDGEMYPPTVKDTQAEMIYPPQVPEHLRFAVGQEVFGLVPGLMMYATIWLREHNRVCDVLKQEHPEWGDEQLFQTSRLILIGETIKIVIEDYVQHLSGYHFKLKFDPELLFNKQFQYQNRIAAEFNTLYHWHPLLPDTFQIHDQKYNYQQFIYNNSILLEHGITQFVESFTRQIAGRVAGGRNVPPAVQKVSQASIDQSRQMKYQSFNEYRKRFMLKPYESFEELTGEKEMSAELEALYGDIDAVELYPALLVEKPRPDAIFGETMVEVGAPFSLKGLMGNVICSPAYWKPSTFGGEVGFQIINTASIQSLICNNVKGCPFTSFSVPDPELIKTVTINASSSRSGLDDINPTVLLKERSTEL
Method: (§1) The COX-1 and COX-2 activities of the compounds were measured using ovine COX-1 and human recombinant COX-2 enzymes included in the “COX I inhibitor Screening Assay” kit provided by Cayman (Cayman Chemical Co., Ann Arbor, MI, USA). The assay directly measures PGF2 a produced by SnCl2 reduction of COX-derived PGH2. The prostanoid production was quantified via enzyme immunoassay using a broadly specific antibody that binds to all the major prostaglandin compounds. […]

ovine COX-1 = target: T2, ovine COX-1 (Ovis aries, UniProt P05979); experiment: COX inhibitor screening assay in vitro, COX-1; assay type: biochemical; conditions: for inhibition at 200 µM: read-out: COX-1 (%) inhibition
T2 construct: purchased Cayman Chemical Co., Ann Arbor, MI, USA
T2 sequence (P05979 25-600): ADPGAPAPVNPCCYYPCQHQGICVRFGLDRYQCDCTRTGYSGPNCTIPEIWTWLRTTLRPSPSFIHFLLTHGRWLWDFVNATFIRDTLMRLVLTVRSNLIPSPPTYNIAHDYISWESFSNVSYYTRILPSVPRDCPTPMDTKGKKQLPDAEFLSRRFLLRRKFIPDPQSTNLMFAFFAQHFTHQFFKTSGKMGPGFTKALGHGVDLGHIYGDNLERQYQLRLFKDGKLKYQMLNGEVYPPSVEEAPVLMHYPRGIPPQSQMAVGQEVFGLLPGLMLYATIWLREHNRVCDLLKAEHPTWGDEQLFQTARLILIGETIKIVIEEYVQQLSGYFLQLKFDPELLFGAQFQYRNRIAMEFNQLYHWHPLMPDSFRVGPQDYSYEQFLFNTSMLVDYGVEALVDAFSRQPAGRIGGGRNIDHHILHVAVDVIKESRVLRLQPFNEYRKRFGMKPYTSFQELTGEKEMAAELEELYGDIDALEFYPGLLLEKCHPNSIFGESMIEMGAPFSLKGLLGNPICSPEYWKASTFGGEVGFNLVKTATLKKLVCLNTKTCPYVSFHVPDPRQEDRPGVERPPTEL
Method: as §1

[1] = system: carrageenin-induced mouse paw edema; experiment: Carrageenin-induced mouse paw edema (CPE), in vivo anti-inflammatory activity; conditions: for inhibition in vivo at 10 µmol/kg: Mus musculus, ip, mice, 0.01 mmol/kg body weight intraperitoneally, given simultaneously with carrageenin (2%, 0.05 mL); for increased anti-inflammatory activity compared to indomethacin: carrageenin paw edema, relative to indomethacin
Method: The in vivo anti-inflammatory effect of the tested compounds was assessed by using the functional model of carrageenin-induced mouse paw edema and is presented as the percentage of inhibition of induction of edema at the right hind paw (Table 1).
Edema was measured by weight increase of the right hind paw in comparison to the […] left paw.
Twenty-five thiazolo[3,2-b]1,2,4-triazole derivatives, previously synthesized were evaluated for their anti-inflammatory activity, in vivo using groups of 6–10 mice of R’’’ strain.
The anti-inflammatory activity of the compounds synthesized was studied with the Carragenin-Induced Paw Edema acute inflammation test using an aqueous carrageenin solution (2%, 0,05 mL), [14] which was injected intradermally in the footpad of the right hind limb muscle (mice R’’’ groups of 6–10 animals), whereas the left end serves as a reference. In the experimental procedure both sex male mice were used, excluding pregnant. Animals were fasted during the time of the experiment. The tested compounds (0.01 mmol/kg body weight), were suspended in water, with few drops of Tween 80 and ground in a mortar before use and were given intraperitoneally simultaneously with the carrageenin injection.

soybean lipoxygenase = target: T3, soybean lipoxygenase (Glycine max, UniProt P08170); experiment: Soybean lipoxygenase inhibition in vitro; assay type: biochemical; conditions: 0.1 mM sodium linoleate, 234 nm
T3 sequence (P08170 1-839): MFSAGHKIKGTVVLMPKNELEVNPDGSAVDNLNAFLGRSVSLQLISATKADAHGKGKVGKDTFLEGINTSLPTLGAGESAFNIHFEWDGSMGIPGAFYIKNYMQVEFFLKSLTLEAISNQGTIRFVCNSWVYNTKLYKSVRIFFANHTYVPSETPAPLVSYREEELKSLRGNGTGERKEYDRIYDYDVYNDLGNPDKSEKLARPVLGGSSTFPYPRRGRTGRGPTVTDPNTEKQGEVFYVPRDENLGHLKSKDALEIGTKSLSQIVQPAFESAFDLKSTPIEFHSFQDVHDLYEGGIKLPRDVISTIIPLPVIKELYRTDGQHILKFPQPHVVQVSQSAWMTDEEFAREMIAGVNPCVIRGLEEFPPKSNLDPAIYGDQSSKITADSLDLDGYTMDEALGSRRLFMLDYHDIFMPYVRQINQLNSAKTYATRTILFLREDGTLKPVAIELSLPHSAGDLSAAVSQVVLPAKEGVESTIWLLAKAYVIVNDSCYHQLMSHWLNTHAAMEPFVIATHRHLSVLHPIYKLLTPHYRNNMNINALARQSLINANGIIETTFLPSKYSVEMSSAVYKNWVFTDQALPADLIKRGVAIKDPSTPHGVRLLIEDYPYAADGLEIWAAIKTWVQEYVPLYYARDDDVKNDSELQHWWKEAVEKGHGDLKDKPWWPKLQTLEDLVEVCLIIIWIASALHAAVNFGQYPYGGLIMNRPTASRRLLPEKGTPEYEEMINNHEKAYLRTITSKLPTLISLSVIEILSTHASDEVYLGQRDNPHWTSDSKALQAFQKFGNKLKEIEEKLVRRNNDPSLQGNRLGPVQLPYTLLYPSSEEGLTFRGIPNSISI
Method: The compounds tested were dissolved in DMSO and preincubated for 4 min at 28 °C in the presence of 753 U/mL 5-soybean lipoxygenase (5-LOX). The enzyme reaction was triggered by addition of a final concentration of 0.1 mM sodium linoleate. The conversion of sodium linoleate 13-hydrouperoxylinoleic acid was measured at 234 nm. Absorbance was measured at time 0 and 3 min.

[2] = at 200 μM, 0.1 μM arachidonic acid

Row | inhibition at 200 µM (human recombinant COX-2; [2]) | inhibition at 200 µM (ovine COX-1; [2]) | LOX (%) inhibition (soybean lipoxygenase) | SMILES | inhibition in vivo at 10 µmol/kg [1] | also measured
1 | 37% | 0% | 31.43% | O=c1/c(=C/c2cccc(Br)c2)sc2nc(C34CC5CC(CC(C5)C3)C4)nn12 [Compound 18] | 51 to 67% | 
2 |  |  |  | O=c1/c(=C/c2ccccc2[N+](=O)[O-])sc2nc(C34CC5CC(CC(C5)C3)C4)nn12 [Compound 12] | 40 to 49% | 
3 | 66% | 26.2% | 6.67% | COc1cc(/C=c2\sc3nc(C45CC6CC(CC(C6)C4)C5)nn3c2=O)ccc1O [Compound 6] | 40 to 49% | IC50 (human recombinant COX-2): > 50 µM
4 | 25% | 93% | 28.58% | O=c1/c(=C/c2ccc(O)cc2)sc2nc(C34CC5CC(CC(C5)C3)C4)nn12 [Compound 3] | 37% | COX-1 IC50 fold lower than that of naproxen (ovine COX-1): 30 fold; IC50 (ovine COX-1): 1.28 µM
5 |  |  |  | O=c1/c(=C/c2cccc([N+](=O)[O-])c2)sc2nc(C34CC5CC(CC(C5)C3)C4)nn12 [Compound 13] | 15% | 
6 |  |  |  | COc1ccc(/C=c2\sc3nc(C45CC6CC(CC(C6)C4)C5)nn3c2=O)cc1OC [Compound 9] | 40 to 49% | 
7 |  |  |  | COc1cc(/C=c2\sc3nc(C45CC6CC(CC(C6)C4)C5)nn3c2=O)cc(OC)c1OC [Compound 10] | 40 to 49% | 
8 |  |  |  | O=c1/c(=C/c2ccccc2)sc2nc(C34CC5CC(CC(C5)C3)C4)nn12 [Compound 1] | 40 to 49% | 
9 |  |  |  | O=c1/c(=C/c2cccc(Cl)c2)sc2nc(C34CC5CC(CC(C5)C3)C4)nn12 [Compound 21] | 40 to 49% | 
10 |  |  |  | O=c1/c(=C/c2c(Cl)cccc2Cl)sc2nc(C34CC5CC(CC(C5)C3)C4)nn12 [Compound 25] | 32% | 
11 |  |  |  | COc1cccc(/C=c2\sc3nc(C45CC6CC(CC(C6)C4)C5)nn3c2=O)c1O [Compound 5] | 51 to 67% | increased anti-inflammatory activity compared to indomethacin [1]: 23%
12 |  |  |  | O=c1/c(=C/c2ccc(Cl)cc2)sc2nc(C34CC5CC(CC(C5)C3)C4)nn12 [Compound 22] | 51 to 67% | 
13 |  |  |  | COc1ccc2cc([C@H](C)C(=O)O)ccc2c1 [Naproxen, reference compound] |  | inhibition at 200 µM (human recombinant COX-2): 65%; inhibition at 200 µM (ovine COX-1): 60%
14 | 0% | 60.5% | 5.72% | COc1ccc(/C=c2\sc3nc(C45CC6CC(CC(C6)C4)C5)nn3c2=O)cc1 [Compound 8] | 51 to 67% | COX-2 (%) inhibition (human recombinant COX-2; [2]): completely inactive; IC50 (ovine COX-1): 41.9 µM; increased anti-inflammatory activity compared to indomethacin [1]: 32%
15 | 20% | 46% | 11.43% | O=c1/c(=C/c2cccc(Cl)c2Cl)sc2nc(C34CC5CC(CC(C5)C3)C4)nn12 [Compound 23] | 37% | 
16 |  |  |  | O=c1/c(=C/c2ccc([N+](=O)[O-])cc2)sc2nc(C34CC5CC(CC(C5)C3)C4)nn12 [Compound 14] | 40 to 49% | 
17 |  |  |  | O=c1/c(=C/c2ccc(Cl)cc2Cl)sc2nc(C34CC5CC(CC(C5)C3)C4)nn12 [Compound 24] | 37% | 
18 | 36% | 16% | 8.07% | O=c1/c(=C/c2ccc(Br)cc2)sc2nc(C34CC5CC(CC(C5)C3)C4)nn12 [Compound 19] | 51 to 67% | 
19 |  |  |  | O=c1/c(=C/c2ccccc2Cl)sc2nc(C34CC5CC(CC(C5)C3)C4)nn12 [Compound 20] | 40 to 49% | 
20 | 25% | 22% | 16.13% | COc1cc(/C=c2\sc3nc(C45CC6CC(CC(C6)C4)C5)nn3c2=O)cc(OC)c1O [Compound 7] | 36% | 
21 | 64% | 18% | 5.82% | O=c1/c(=C/c2cccc(O)c2)sc2nc(C34CC5CC(CC(C5)C3)C4)nn12 [Compound 2] | 36% | IC50 (human recombinant COX-2): > 50 µM
22 | 0% | 16% | 17.15% | O=c1/c(=C/c2ccccc2Br)sc2nc(C34CC5CC(CC(C5)C3)C4)nn12 [Compound 17] | 51 to 67% | 
23 |  |  |  | CN(C)c1ccc(/C=c2\sc3nc(C45CC6CC(CC(C6)C4)C5)nn3c2=O)cc1 [Compound 11] | 51 to 67% | 
24 | 0% | 19% | 16.13% | O=c1/c(=C/c2ccc(F)cc2)sc2nc(C34CC5CC(CC(C5)C3)C4)nn12 [Compound 16] | 51 to 67% | 
25 |  |  |  | O=c1/c(=C/c2ccc(O)cc2O)sc2nc(C34CC5CC(CC(C5)C3)C4)nn12 [Compound 4] | 40 to 49% | 
26 | 23% | 36% | 27.15% | O=c1/c(=C/c2cccc(F)c2)sc2nc(C34CC5CC(CC(C5)C3)C4)nn12 [Compound 15] | 51 to 67% | 
